Source: patent US5621133A (priority 1995, dated 1997)
Structures can show the parent of a compound that is named as a salt.

Columns and labels:
[1] = biological target: dopamine D-2 receptor (Rattus norvegicus, UniProt P61169); assay: biochemical; format: binding; conditions: rat caudate, [125I]-p-aminophenylethyl spiroperidol; read-out: D-2 Ki
Procedure: Homogenized rat caudate was the source of the D-2 receptors. […] The molar affinity of the compound for the receptor binding site was calculated by the same method used for the D-1 receptor assay, assuming a competitive interaction between the compound and the radiolabeled ligand.

[2] = test system: dopamine D-1 receptor; conditions: for Intrinsic Activity (adenylate cyclase assay): dopamine = 100, goldfish retina or rat striatum; for EC50: read-out: EC50 (agonist activity in adenylate cyclase assay), tissue from goldfish retina or rat striatum
Procedure: In order to determine agonist activity, cell-free tissue homogenates are incubated in an ionic buffer solution containing ATP and the compound being evaluated. The tissue was obtained from either goldfish retina or rat striatum.

[3] = biological target: dopamine D-1 receptor (Rattus norvegicus, UniProt P18901); assay: biochemical; conditions: D-1 Ki, rat caudate, [125I]SCH-23982
Sequence of dopamine D-1 receptor (Rattus norvegicus, UniProt P18901) (P18901 whole entry): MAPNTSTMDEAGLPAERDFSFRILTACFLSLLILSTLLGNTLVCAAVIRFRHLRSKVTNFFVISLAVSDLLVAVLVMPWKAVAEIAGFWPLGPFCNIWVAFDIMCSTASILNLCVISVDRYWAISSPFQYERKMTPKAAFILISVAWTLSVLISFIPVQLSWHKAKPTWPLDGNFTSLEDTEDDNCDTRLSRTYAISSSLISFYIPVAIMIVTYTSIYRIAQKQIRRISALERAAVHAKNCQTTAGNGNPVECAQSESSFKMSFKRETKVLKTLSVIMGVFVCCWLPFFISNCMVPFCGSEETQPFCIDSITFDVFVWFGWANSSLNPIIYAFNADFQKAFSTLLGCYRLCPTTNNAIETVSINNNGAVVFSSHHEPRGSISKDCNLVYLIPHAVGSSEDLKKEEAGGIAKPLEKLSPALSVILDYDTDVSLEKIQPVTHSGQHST
Text: The compounds compete with the radiolabeled ligand for occupancy of the receptors and the molar potency of each compound was quantified.
The Ki values are inversely proportional to the affinity of the compound for the receptor.

Sequence of dopamine D-2 receptor (P61169 whole entry): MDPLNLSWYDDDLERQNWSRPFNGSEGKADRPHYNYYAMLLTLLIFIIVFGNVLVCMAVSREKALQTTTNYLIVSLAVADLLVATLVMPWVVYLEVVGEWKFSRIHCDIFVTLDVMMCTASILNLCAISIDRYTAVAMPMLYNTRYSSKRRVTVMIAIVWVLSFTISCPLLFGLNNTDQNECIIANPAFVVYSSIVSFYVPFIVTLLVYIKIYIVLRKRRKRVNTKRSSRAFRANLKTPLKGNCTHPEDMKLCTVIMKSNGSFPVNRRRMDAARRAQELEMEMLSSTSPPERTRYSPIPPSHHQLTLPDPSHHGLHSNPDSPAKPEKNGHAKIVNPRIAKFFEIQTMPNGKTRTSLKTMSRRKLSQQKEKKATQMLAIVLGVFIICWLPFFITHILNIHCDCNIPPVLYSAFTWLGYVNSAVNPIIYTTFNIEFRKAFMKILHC

SMILES | Ki [1] [nM] | Intrinsic Activity (adenylate cyclase assay) [2] | EC50 [2] [nM] | Ki [3] [nM]
NC[C@H]1Cc2c(ccc(O)c2O)[C@@H](CN)O1 (relative stereo) [Example 154, [1,3-cis]1,3-Bis(aminomethyl)-3,4-dihydro-5,6-dihydroxy-1H-2-benzopyran Dihydrochloride] | 17000 | 95 | 100 | 1400
CCCCCC[C@@H]1Cc2c(ccc(O)c2O)[C@H](CN)O1 (relative stereo) [Example 68] | 5500 | 90 | 14 | 100
C#CCNC[C@H]1O[C@@H](C2CCCCC2)Cc2c1ccc(O)c2O (relative stereo) [Example 118] | 6700 | 87 | 56 | 2500
CNC[C@@H]1O[C@H](C23CC4CC(CC(C4)C2)C3)Cc2c1ccc(O)c2O [Example 134] | 1000 | 81 | 4 | 35
CN1CCC2=C(C1)c1ccc(O)c(O)c1CC21CCCC1 [Example 211] | > 10000 | 38 | 63 | 580
CNC[C@H]1O[C@@H](CCN)Cc2c1ccc(O)c2O (relative stereo) [Example 173] | 14000 | 63 | 390 | 3600
CN(C)C[C@@H]1O[C@H](C2(C)CCCCC2)Cc2c1ccc(O)c2O (relative stereo) [Example 230] | > 10000 | 59 | 120 | 26
NC[C@H]1O[C@@H](CNC(=O)c2ccc(Br)cc2)Cc2c1ccc(O)c2O (relative stereo) [Example 167] | 2.1 | 125 | 120 | 310
CNC[C@H]1C[C@@H](c2ccccc2)Cc2c1ccc(O)c2O (relative stereo) [Example 150, [1,3-cis]5,6,Dihydroxy-1-(N-methyl)aminomethyl-3-phenyl-1,2,3,4-tetrahydro-naphthalene] | 12000 | 102 | 6 | 25
CN(C)C[C@@H]1O[C@H](C2(c3ccccc3)CCCCC2)Cc2c1ccc(O)c2O (relative stereo) [Example 229] | 3600 | 34 | 330 | 260
CCC(=O)Oc1ccc2c(c1OC(=O)CC)CC(c1ccccc1)C=C2CN (centres unmarked) [Example 20] | > 10000 | 80 | 500 | 1900
CCCC[C@H]1Cc2c(ccc(O)c2O)[C@@H](CNC)O1 (relative stereo) [Example 135] | 1600 | 136 | 7 | 180
NCC1=CC2(CCCCCCC2)Cc2c1ccc(O)c2O [Example 191] | > 10000 | 58 | 1500 | 1100
Oc1ccc2c(c1O)C[C@H](c1ccccc1)O[C@@H]2[C@H]1CCCN1 [Example 127] | > 10000 | 55 | 520 | 1300
C=CCC[C@@H]1Cc2c(ccc(O)c2O)[C@H](CN)O1 (relative stereo) [Example 73] | 34000 | 138 | 160 | 64
CCC(C)C(C)[C@@H]1Cc2c(ccc(O)c2O)[C@H](CN)O1 (some centres unmarked) [Example 72] | 8200 | 80 | 170 | 15

SMILES | Ki [1] [nM] | Intrinsic Activity (adenylate cyclase assay) [2] | EC50 [2] [nM] | Ki [3] [nM]
C=CCNC[C@H]1O[C@@H](C23CC4CC(CC(C4)C2)C3)Cc2c1ccc(O)c2O (relative stereo) [Example 117] | 1000 | 60 | 80 | 1200
NC[C@@H]1O[C@H](CC2CCCC2)Cc2c1ccc(O)c2O (relative stereo) [Example 78] | 810 | 147 | 15 | 49
NC[C@H]1O[C@@H](COc2ccccc2-c2ccccc2)Cc2c1ccc(O)c2O (relative stereo) [Example 56] | 1300 | 46 | 430 | 2200
NC[C@@H]1O[C@H](C2CCCCC2)CCc2c1ccc(O)c2O (relative stereo) [Example 176, [1,3-cis]1-Aminomethyl-3-cyclohexyl-6,7-dihydroxy-1,3,4,5-tetrahydro-2-benzoxepin Hydrochloride] | 2600 | 90 | 320 | 650
NC[C@@H]1O[C@H](C2CCCCC2)Cc2c1cc(Br)c(O)c2O (relative stereo) [Example 81] | 4600 | 61 | 67 | 210
NCC1CC2(CCCC2)Cc2c1ccc(O)c2O (centres unmarked) [Example 196] | > 10000 | 80 | 1100 | 6000
CC(C)C(=O)NC[C@H]1Cc2c(ccc(O)c2O)[C@@H](CN)O1 (relative stereo) [Example 171] | 810 | 124 | 180 | 530
C=CCNC[C@@H]1O[C@H](C(C)(C)C)Cc2c1ccc(O)c2O [Example 129] | 3100 | 97 | 1000 | 2100
CC(=O)NC[C@H]1Cc2c(ccc(O)c2O)[C@@H](CN)O1 (relative stereo) [Example 161] | 170 | 58 | 450 | 1300
NC[C@H]1C[C@@H](c2ccc3ccccc3c2)Cc2c1ccc(O)c2O (relative stereo) [Example 43] | 12000 | 70 | 150 | 2400
NCC1=CC(c2ccc3ccccc3c2)Cc2c1ccc(O)c2O (centres unmarked) [Example 40] | 27000 | 86 | 1100 | 5000
NC[C@@H]1O[C@H](COc2ccc(Br)cc2)Cc2c1ccc(O)c2O (relative stereo) [Example 58] | 1200 | 63 | 19 | 260
CCN1CCC2=C(C1)c1ccc(O)c(O)c1CC21CCCCCC1 [Example 251] | 1200 | 41 | 470 | 530
CCCCCCCCCC[C@@H]1Cc2c(ccc(O)c2O)[C@H](CN)O1 (relative stereo) [Example 65] | 16000 | 91 | 320 | 14000
CCCC(=O)Oc1ccc2c(c1OC(=O)CCC)CC(c1ccccc1)C=C2CN (centres unmarked) [Example 17] | > 10000 | 42 | 2800 | 800
NCC1=CC2(CCCCCCCC2)Cc2c1ccc(O)c2O [Example 232] | > 10000 | 49 | 1700 | 3800
